Source: patent EP4029501A1, “COMBINATION OF POLYAROMATIC UREA DERIVATIVES AND GLUCOCORTICOID OR HDAC INHIBITOR FOR THE TREATMENT OF DISEASES OR CONDITIONS ASSOCIATED WITH MUSCLE CELLS AND/OR SATELLITE CELLS” (Anagenesis Biotechnologies, priority 2021, dated 2022)

Tested on: muscle progenitors derived from DMD hiPSC
Assay: Myotube assay: total myotube area per well (alpha-actinin staining)
Assay type: cell-based, human
Conditions: Homo sapiens, Myotube, 72 h, DMD or WT cell source not given; for Emax: efficacy, MA = normalized Myotube Area, 3 days incubation; for EC50: myogenic activity, half-maximal generation of myotubes, 10 points dose-response 1.5 nM to 30 µM, 3 days
Summary of the method: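 DMD hiPSC-derived muscle progenitors (NCRM-1 background) plated at 3500 cells/well in K5 medium with 5 µM Y-27632, then exposed to compound at 1.5 nM–30 µM for 3 days at 37°C. Cells fixed on day 7, alpha-actinin-immunostained and total myotube area per well quantified; duplicates averaged, EC50 and normalized myotube area derived.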

SMILES | EC50 [µM] | Emax [%]
CC(C)(C)c1cc(NC(=O)Nc2ccc(Oc3ccnc4[nH]c(=O)cnc34)cc2F)[nH]n1 [(h), 1-(3-(tert-butyl)-1H-pyrazol-5-yl)-3-(2-fluoro-4-((3-oxo-3,4-dihydropyrido[2,3-b]pyrazin-8-yl)oxy)phenyl)urea] | ≥ 5 | 25 to 50
O=C(Nc1ccc(Oc2ccnc3[nH]c(=O)cnc23)cc1F)Nc1cc(C2CC2)nn1-c1ccccc1 [(e), 1-(3-cyclopropyl-1-phenyl-1 H-pyrazol-5-yl)-3-(2-fluoro-4-((3-oxo-3,4-dihydropyrido[2,3-b]pyrazin-8-yl)oxy)phenyl)urea] | ≥ 5 | 25 to 50
CSc1cc(Oc2ccnc3[nH]c(=O)cnc23)ccc1NC(=O)Nc1cc(C(C)(C)C)on1 [(dh), 1-(5-(tert-butyl)isoxazol-3-yl)-3-(2-(methylthio)-4-((3-oxo-3,4-dihydropyrido[2,3-b]pyrazin-8-yl)oxy)phenyl)urea] | 1 to 5 | ≥ 75
Cc1cc(Oc2ccnc3[nH]c(=O)cnc23)ccc1NC(=O)Nc1cc(C(C)(C)C)nn1-c1ccccc1 [(al), 1-(3-(tert-butyl)-1-phenyl-1 H-pyrazol-5-yl)-3-(2-methyl-4-((3-oxo-3,4-dihydropyrido[2,3-b]pyrazin-8-yl)oxy)phenyl)urea] | ≥ 5 | ≥ 75
CC1(c2cc(NC(=O)Nc3ccc(Oc4ccnc5[nH]c(=O)cnc45)cc3F)n(-c3ccccc3)n2)COC1 [(f), 1-(2-fluoro-4-((3-oxo-3,4-dihydropyrido[2,3-b]pyrazin-8-yl)oxy)phenyl)-3-(3-(3-methyloxetan-3-yl)-1-phenyl-1 H-pyrazol-5-yl)urea] | ≥ 5 | 50 to 75
CSc1cc(Oc2ccnc3[nH]c(=O)cnc23)ccc1NC(=O)Nc1cc(C(C)(C)C)nn1CCCN1CCOCC1 [(bh), 1-(3-(tert-butyl)-1-(3-morpholinopropyl)-1 H-pyrazol-5-yl)-3-(2-(methylthio)-4-((3-oxo-3,4-dihydropyrido[2,3-b]pyrazin-8-yl)oxy)phenyl)urea] | ≥ 5 | ≥ 75
Cc1nc2c(Oc3ccc(NC(=O)Nc4cc(C(C)(C)C)nn4-c4ccccc4)c(F)c3)ccnc2c(=O)[nH]1 [(w), 1-(3-(tert-butyl)-1-phenyl-1 H-pyrazol-5-yl)-3-(2-fluoro-4-((2-methyl-4-oxo-3,4-dihydropyrido[3,2-d]pyrimidin-8-yl)oxy)phenyl)urea] | 1 to 5 | 50 to 75
CC(C)(C)c1cc(NC(=O)Nc2ccc(Oc3ccnc4[nH]c(=O)cnc34)cc2F)n(-c2ncccn2)n1 [(m), 1-(3-(tert-butyl)-1-(pyrimidin-2-yl)-1 H-pyrazol-5-yl)-3-(2-fluoro-4-((3-oxo-3,4-dihydropyrido[2,3-b]pyrazin-8-yl)oxy)phenyl)urea] | ≥ 5 | 50 to 75
CSc1cc(Oc2ccnc3nccnc23)ccc1NC(=O)Nc1cc(C(C)(C)C)nn1-c1ccccc1 [(bs), 1-(3-(tert-butyl)-1-phenyl-1 H-pyrazol-5-yl)-3-(2-(methylthio)-4-(pyrido[2,3-b]pyrazin-8-yloxy)phenyl)urea] | ≥ 5 | ≥ 75
O=C(Nc1ccc(Oc2ccnc3[nH]c(=O)cnc23)cc1F)Nc1c2c(nn1-c1ccccc1)CCC2 [(x), 1-(2-fluoro-4-((3-oxo-3,4-dihydropyrido[2,3-b]pyrazin-8-yl)oxy)phenyl)-3-(2-phenyl-2,4,5,6-tetrahydrocyclopenta[c]pyrazol-3-yl)urea] | ≥ 5 | 25 to 50
CSc1cc(Oc2ccnc3[nH]c(=O)cnc23)ccc1NC(=O)Nc1cc(C(C)(C)C)nn1-c1ccc(F)c(Cl)c1 [(cm), 1-(3-(tert-butyl)-1-(3-chloro-4-fluorophenyl)-1H-pyrazol-5-yl)-3-(2-(methylthio)-4-((3-oxo-3,4-dihydropyrido[2,3-b]pyrazin-8-yl)oxy)phenyl)urea] | 0.5 to 1 | ≥ 75
CNC(=O)c1ccc(Oc2cccc(NC(=O)Nc3cc(C(C)(C)C)nn3-c3ccccc3)c2)cn1 [(ab), 5-(3-(3-(3-(tert-butyl)-1-phenyl-1H-pyrazol-5-yl)ureido)phenoxy)-N-methylpicolinamide] | 0.5 to 1 | 50 to 75
CSc1cc(Oc2ccnc3[nH]c(=O)cnc23)ccc1NC(=O)Nc1nnc(C(C)(C)C)s1 [(z), 1-(5-(tert-butyl)-1,3,4-thiadiazol-2-yl)-3-(2-(methylthio)-4-((3-oxo-3,4-dihydropyrido[2,3-b]pyrazin-8-yl)oxy)phenyl)urea] | ≥ 5 | ≥ 75
CSc1cc(Oc2ccnc3[nH]c(=O)[nH]c23)ccc1NC(=O)Nc1cc(C(C)(C)C)nn1-c1ccccc1 [(dm), 1-(3-(tert-butyl)-1-phenyl-1H-pyrazol-5-yl)-3-(2-(methylthio)-4-((2-oxo-2,3-dihydro-1H-imidazo[4,5-b]pyridin-7-yl)oxy)phenyl)urea] | 1 to 5 | ≥ 75
COc1cccc(-n2nc(C(C)(C)C)cc2NC(=O)Nc2ccc(Oc3ccnc4[nH]c(=O)cnc34)cc2SC)c1 [(aw), 1-(3-(tert-butyl)-1-(3-methoxyphenyl)-1 H-pyrazol-5-yl)-3-(2-(methylthio)-4-((3-oxo-3,4-dihydropyrido[2,3-b]pyrazin-8-yl)oxy)phenyl)urea] | 0.5 to 1 | ≥ 75
CC(C)(C)c1cc(NC(=O)Nc2ccc(Oc3ccncc3)cc2)n(-c2ccccc2)n1 [(bl), 1-(3-(tert-butyl)-1-phenyl-1 H-pyrazol-5-yl)-3-(4-(pyridin-4-yloxy)phenyl)urea] | 0.5 to 1 | 50 to 75
CC(C)(C)c1cc(NC(=O)Nc2ccc(C(=O)c3ccncc3)cc2)n(-c2ccccc2)n1 [(cs), 1-(3-(tert-butyl)-1-phenyl-1 H-pyrazol-5-yl)-3-(4-isonicotinoylphenyl)urea] | ≥ 5 | 25 to 50
CNCC(=O)Nc1cc(Oc2ccc(NC(=O)Nc3cc(C(C)(C)C)nn3-c3ccccc3)c(SC)c2)ccn1 [(bq), N-(4-(4-(3-(3-(tert-butyl)-1-phenyl-1H-pyrazol-5-yl)ureido)-3-(methylthio)phenoxy)pyridin-2-yl)-2-(methylamino)acetamide] |  | ≥ 75
CC(C)(C)c1cc(NC(=O)Nc2ccc(Oc3ccnc4[nH]c(=O)cnc34)cc2F)n(CCN2CCOCC2)n1 [(k), 1-(3-(tert-butyl)-1-(2-morpholinoethyl)-1 H-pyrazol-5-yl)-3-(2-fluoro-4-((3-oxo-3,4-dihydropyrido[2,3-b]pyrazin-8-yl)oxy)phenyl)urea] | 1 to 5 | 50 to 75

Further lines, with some results ahead:

EC50 [µM] | SMILES | Emax [%]
< 0.5 | CSc1cc(Oc2ccnc3[nH]c(=O)cnc23)ccc1NC(=O)Nc1cc(C(C)(C)C)nn1-c1cccc(Cl)c1 [(as), 1-(3-(tert-butyl)-1-(3-chlorophenyl)-1H-pyrazol-5-yl)-3-(2-(methylthio)-4-((3-oxo-3,4-dihydropyrido[2,3-b]pyrazin-8-yl)oxy)phenyl)urea] | ≥ 75
0.5 to 1 | CSc1cc(Oc2ccnc3[nH]c(=O)cnc23)ccc1NC(=O)Nc1cc(C(C)(C)C)nn1-c1ccc(OCCN2CCOCC2)cc1 [(cf), 1-(3-(tert-butyl)-1-(4-(2-morpholinoethoxy)phenyl)-1 H-pyrazol-5-yl)-3-(2-(methylthio)-4-((3-oxo-3,4-dihydropyrido[2,3-b]pyrazin-8-yl)oxy)phenyl)urea] | ≥ 75
0.5 to 1 | CSc1cc(Oc2ccnc3c2OCCN3)ccc1NC(=O)Nc1cc(C(C)(C)C)nn1-c1ccccc1 [(cy), 1-(3-(tert-butyl)-1-phenyl-1H-pyrazol-5-yl)-3-(4-((3,4-dihydro-2H-pyrido[3,2-b][1,4]oxazin-8-yl)oxy)-2-(methylthio)phenyl)urea] | ≥ 75
< 0.5 | CCOC(=O)Nc1cc(Oc2ccc(NC(=O)Nc3cc(C(C)(C)C)no3)c(SC)c2)ccn1 [(de), ethyl (4-(4-(3-(3-(tert-butyl)isoxazol-5-yl)ureido)-3-(methylthio)phenoxy)pyridin-2-yl)carbamate] | ≥ 75
0.5 to 1 | CC(C)(C)c1nc(NC(=O)Nc2ccc(Oc3ccnc4[nH]c(=O)cnc34)cc2F)n(-c2ccccc2)n1 [(p), 1-(3-(tert-butyl)-1-phenyl-1 H-1,2,4-triazol-5-yl)-3-(2-fluoro-4-((3-oxo-3,4-dihydropyrido[2,3-b]pyrazin-8-yl)oxy)phenyl)urea] | 25 to 50
0.5 to 1 | Cc1cc(NC(=O)Nc2ccc(Oc3ccnc4[nH]c(=O)cnc34)cc2F)n(-c2ccccc2)n1 [(a), 1-(2-fluoro-4-((3-oxo-3,4-dihydropyrido[2,3-b]pyrazin-8-yl)oxy)phenyl)-3-(3-methyl-1-phenyl-1 H-pyrazol-5-yl)urea] | 25 to 50
< 0.5 | CC(C)(C)c1cnc(NC(=O)Nc2ccc(Oc3ccnc4[nH]c(=O)cnc34)c3ccccc23)s1 [(ba), 1-(5-(tert-butyl)thiazol-2-yl)-3-(4-((3-oxo-3,4-dihydropyrido[2,3-b]pyrazin-8-yl)oxy)naphthalen-1-yl)urea] | ≥ 75
< 0.5 | CSc1cc(Oc2ccnc3c2CCC(=O)N3)ccc1NC(=O)Nc1ncc(C(C)(C)C)s1 [(cb), 1-(5-(tert-butyl)thiazol-2-yl)-3-(2-(methylthio)-4-((7-oxo-5,6,7,8-tetrahydro-1,8-naphthyridin-4-yl)oxy)phenyl)urea] | ≥ 75
< 0.5 | CC(C)(C)c1cc(NC(=O)Nc2ccc(Oc3ccnc4c3CCC(=O)N4)c3ccccc23)on1 [(dg), 1-(3-(tert-butyl)isoxazol-5-yl)-3-(4-((7-oxo-5,6,7,8-tetrahydro-1,8-naphthyridin-4-yl)oxy)naphthalen-1-yl)urea] | ≥ 75
< 0.5 | CSc1cc(Oc2ccnc3[nH]c(=O)cnc23)ccc1NC(=O)Nc1cc(C(C)(C)C)nn1-c1ccc(CN(C)C)cc1 [(dp), 1-(3-(tert-butyl)-1-(4-((dimethylamino)methyl)phenyl)-1H-pyrazol-5-yl)-3-(2-(methylthio)-4-((3-oxo-3,4-dihydropyrido[2,3-b]pyrazin-8-yl)oxy)phenyl)urea] | ≥ 75
